Results published in BindingDB's records for doi:10.7270/Q28P5XZM (Nmmlsc, 2011).

Target: T1, General amino acid permease AGP1 (Saccharomyces cerevisiae (strain ATCC 204508 / S288c), UniProt P25376)
T1 sequence (P25376 whole entry): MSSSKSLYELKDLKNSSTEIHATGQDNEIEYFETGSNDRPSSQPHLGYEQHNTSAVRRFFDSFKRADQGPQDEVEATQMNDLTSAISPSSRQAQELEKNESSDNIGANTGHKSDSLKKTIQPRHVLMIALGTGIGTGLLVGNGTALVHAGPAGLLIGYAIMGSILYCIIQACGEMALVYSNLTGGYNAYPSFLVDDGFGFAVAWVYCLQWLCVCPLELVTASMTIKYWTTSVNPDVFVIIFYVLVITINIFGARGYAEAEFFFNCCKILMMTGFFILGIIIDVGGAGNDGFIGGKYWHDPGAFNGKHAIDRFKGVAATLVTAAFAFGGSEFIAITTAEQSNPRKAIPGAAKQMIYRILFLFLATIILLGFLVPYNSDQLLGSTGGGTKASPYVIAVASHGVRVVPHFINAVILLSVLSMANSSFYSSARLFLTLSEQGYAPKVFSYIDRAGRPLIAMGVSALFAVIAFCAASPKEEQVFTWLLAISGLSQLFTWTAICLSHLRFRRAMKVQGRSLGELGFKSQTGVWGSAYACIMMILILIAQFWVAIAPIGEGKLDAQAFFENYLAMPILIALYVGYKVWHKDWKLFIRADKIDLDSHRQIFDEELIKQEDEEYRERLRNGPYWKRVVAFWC
Experiment: analog potency on AGP1-GFP expression in yeast, SAR follow-up, cell-based, flow cytometry, S. cerevisiae, cherry pick 3 (AID 488790)
Conditions: inactive by the depositor's call

| EC50 [µM] | Compound |
| --- | --- |
| 775 | Cc1ccc(C(=O)Nc2nc(-c3ccccn3)cs2)o1 [5-methyl-N-[4-(2-pyridinyl)-2-thiazolyl]-2-furancarboxamide] |
| 76.4 | Nc1ncnc(Nc2cc(Cl)cc(Cl)c2)c1[N+](=O)[O-] [MLS000581561] |
